Data on 19 compounds can be found in US20240252506A1 (Hoffmann-La Roche Inc., priority 2021, published 2024).

Converted amounts (≈) assume the structure as drawn.

The assay concerns Escherichia coli ATCC 25922. The assay can be described thus: Minimal Inhibitory Concentration (MIC) determination, broth microdilution (CLSI M07-A10). The class given is cell-based. Particulars: Escherichia coli, ATCC25922, strain Escherichia coli ATCC 25922, 18-24 hours at 35±2° C., lowest concentration for complete growth inhibition (no visible growth), read-out: Escherichia coli growth inhibition MIC. An outline of the steps: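 Broth microdilution per CLSI M07-A10; compounds in 2-fold serial dilutions; inoculum from 0.5 McFarland suspension diluted 1:200 in broth. Incubated 18-24 h at 35±2° C in ambient air; MIC (μg/mL) taken as lowest concentration giving no visible growth.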
Usually MIC stands for the smallest concentration in the dilution series that meets the test's criterion for growth inhibition. Regarding `NCCn1nnc2c(F)c3c(c(F)c21)CC(CN1CCC2(CC1)CN(c1cnc4c(n1)NC(=O)CO4)C(=O)O2)C3` (stereo not shown) [Example 42, 6-[8-[[1-(2-aminoethyl)-4,8-difluoro-6,7-dihydro-5H-cyclopenta[f]benzotriazol-6-yl]methyl]-2-oxo-1-oxa-3,8-diazaspiro[4.5]decan-3-yl]-4H-pyrazino[2,3-b][1,4]oxazin-3-one], the MIC is at most 0.06 µg/mL.

As for `NCCn1c(=O)n(CCN)c2c(F)c3c(c(F)c21)CC(CN1CCC2(CC1)CN(c1cnc4c(n1)NC(=O)CO4)C(=O)O2)C3.O=C(O)C(F)(F)F` [Example 43, 6-[8-[[1,3-bis(2-aminoethyl)-4,8-difluoro-2-oxo-6,7-dihydro-5H-cyclopenta[f]benzimidazol-6-yl]methyl]-2-oxo-1-oxa-3,8-diazaspiro[4.5]decan-3-yl]-4H-pyrazino[2,3-b][1,4]oxazin-3-one; 2,2,2-trifluoroacetic acid], the MIC stood at 2 µg/mL. Turning to `NCCn1c(=O)[nH]c2c(F)c3c(c(F)c21)CC(CN1CCC2(CC1)CN(c1cnc4c(n1)NC(=O)CO4)C(=O)O2)C3` (stereo not shown) [Example 44, 6-[8-[[1-(2-aminoethyl)-4,8-difluoro-2-oxo-3,5,6,7-tetrahydrocyclopenta[f]benzimidazol-6-yl]methyl]-2-oxo-1-oxa-3,8-diazaspiro[4.5]decan-3-yl]-4H-pyrazino[2,3-b][1,4]oxazin-3-one], the MIC came out at 0.25 µg/mL (≈ 0.438 µM).

In the case of `C[C@@H](N)c1nc2cc3c(c(F)c2[nH]1)CC(CN1CCC2(CC1)CN(c1cnc4c(n1)NC(=O)CO4)C(=O)O2)C3` (stereo partly drawn) [Example 45, 6-[8-[[2-[(1R)-1-aminoethyl]-8-fluoro-1,5,6,7-tetrahydrocyclopenta[f]benzimidazol-6-yl]methyl]-2-oxo-1-oxa-3,8-diazaspiro[4.5]decan-3-yl]-4H-pyrazino[2,3-b][1,4]oxazin-3-one], the MIC was determined as 0.125 µg/mL (≈ 0.233 µM).

Turning to `O=C(O)C(F)(F)F.O=C1COc2ncc(N3CC4(CCN(CC5Cc6c(c(F)c7[nH]c([C@@H]8C[C@@H](O)CN8)nc7c6F)C5)CC4)OC3=O)nc2N1` [Example 46, 6-[8-[[4,8-Difluoro-2-[(2S,4R)-4-hydroxypyrrolidin-2-yl]-3,5,6,7-tetrahydrocyclopenta[f]benzimidazol-6-yl]methyl]-2-oxo-1-oxa-3,8-diazaspiro[4.5]decan-3-yl]-4H-pyrazino[2,3-b][1,4]oxazin-3-one;2,2,2-trifluoroacetic acid], the MIC was determined as 0.25 µg/mL. Take `O=C(O)C(F)(F)F.O=C1COc2ncc(N3CC(CCNCC4Cc5c(c(F)c6[nH]c([C@@H]7C[C@@H](O)CN7)nc6c5F)C4)OC3=O)nc2N1` (stereo partly drawn) [Example 47, 6-[5-[2-[[4,8-difluoro-2-[(2S,4R)-4-hydroxypyrrolidin-2-yl]-3,5,6,7-tetrahydrocyclopenta[f]benzimidazol-6-yl]methylamino]ethyl]-2-oxo-oxazolidin-3-yl]-4H-pyrazino[2,3-b][1,4]oxazin-3-one; 2,2,2-trifluoroacetic acid]: the MIC was determined as 2 µg/mL. `O=C(O)C(F)(F)F.O=C1COc2ncc(N3CC4(CCN(CC5Cc6cc7[nH]c([C@@H]8C[C@@H](O)CN8)nc7c(F)c6C5)CC4)OC3=O)nc2N1` (stereo partly drawn) [Example 48, 6-[8-[[8-fluoro-2-[(2S,4R)-4-hydroxypyrrolidin-2-yl]-3,5,6,7-tetrahydrocyclopenta[f]benzimidazol-6-yl]methyl]-2-oxo-1-oxa-3,8-diazaspiro[4.5]decan-3-yl]-4H-pyrazino[2,3-b][1,4]oxazin-3-one; 2,2,2-trifluoroacetic acid]: the MIC came to 0.25 µg/mL. Next, `O=C(O)C(F)(F)F.O=C1COc2ncc(N3CC4(CCN(CC5Cc6c(c(F)c7[nH]c([C@H]8C[C@H](O)CN8)nc7c6F)C5)CC4)OC3=O)nc2N1` [Example 49, 6-[8-[[4,8-difluoro-2-[(2R,4S)-4-hydroxypyrrolidin-2-yl]-3,5,6,7-tetrahydrocyclopenta[f]benzimidazol-6-yl]methyl]-2-oxo-1-oxa-3,8-diazaspiro[4.5]decan-3-yl]-4H-pyrazino[2,3-b][1,4]oxazin-3-one; 2,2,2-trifluoroacetic acid]: 0.25 µg/mL; `O=C(O)C(F)(F)F.O=C1COc2ncc(N3CC4(CCN(CC5Cc6c(c(F)c7[nH]c([C@H]8C[C@@H](O)CN8)nc7c6F)C5)CC4)OC3=O)nc2N1` [Example 50, 6-[8-[[4,8-difluoro-2-[(2R,4R)-4-hydroxypyrrolidin-2-yl]-3,5,6,7-tetrahydrocyclopenta[f]benzimidazol-6-yl]methyl]-2-oxo-1-oxa-3,8-diazaspiro[4.5]decan-3-yl]-4H-pyrazino[2,3-b][1,4]oxazin-3-one; 2,2,2-trifluoroacetic acid]: 0.25 µg/mL; `O=C(O)C(F)(F)F.O=C1COc2ncc(N3CC4(CCN(CC5Cc6c(c(F)c7[nH]c([C@@H]8C[C@H](O)CN8)nc7c6F)C5)CC4)OC3=O)nc2N1` [Example 52, 6-[8-[[4,8-difluoro-2-[(2S,4S)-4-hydroxypyrrolidin-2-yl]-3,5,6,7-tetrahydrocyclopenta[f]benzimidazol-6-yl]methyl]-2-oxo-1-oxa-3,8-diazaspiro[4.5]decan-3-yl]-4H-pyrazino[2,3-b][1,4]oxazin-3-one; 2,2,2-trifluoroacetic acid]: 0.5 µg/mL. For `O=C1COc2ncc(N3CC4(CC(NCC5Cc6c(c(F)c7[nH]c([C@H]8C[C@@H](O)CN8)nc7c6F)C5)C4)OC3=O)nc2N1` (stereo partly drawn) [Example 53, 6-[2-[[4,8-difluoro-2-[(2R,4R)-4-hydroxypyrrolidin-2-yl]-3,5,6,7-tetrahydrocyclopenta[f]benzimidazol-6-yl]methylamino]-6-oxo-5-oxa-7-azaspiro[3.4]octan-7-yl]-4H-pyrazino[2,3-b][1,4]oxazin-3-one], the MIC is 4 µg/mL (≈ 6.87 µM). Next, `O=C(O)C(F)(F)F.O=C1COc2ncc(N3CC4(CCN(CC5Cc6c(c(F)c7[nH]c([C@H]8NCC[C@@H]8O)nc7c6F)C5)CC4)OC3=O)nc2N1` [Example 54, 6-[8-[[4,8-difluoro-2-[(2R,3S)-3-hydroxypyrrolidin-2-yl]-3,5,6,7-tetrahydrocyclopenta[f]benzimidazol-6-yl]methyl]-2-oxo-1-oxa-3,8-diazaspiro[4.5]decan-3-yl]-4H-pyrazino[2,3-b][1,4]oxazin-3-one; 2,2,2-trifluoroacetic acid]: 0.125 µg/mL; `Cn1c([C@@H]2C[C@@H](O)CN2)nc2c(F)c3c(c(F)c21)CC(CN1CCC2(CC1)CN(c1cnc4c(n1)NC(=O)CO4)C(=O)O2)C3.O=C(O)C(F)(F)F` (stereo partly drawn) [Example 55, 6-[8-[[4,8-difluoro-2-[(2S,4R)-4-hydroxypyrrolidin-2-yl]-1-methyl-6,7-dihydro-5H-cyclopenta[f]benzimidazol-6-yl]methyl]-2-oxo-1-oxa-3,8-diazaspiro[4.5]decan-3-yl]-4H-pyrazino[2,3-b][1,4]oxazin-3-one; 2,2,2-trifluoroacetic acid]: 0.25 µg/mL. For `CN[C@H](CO)c1nc2c(F)c3c(c(F)c2[nH]1)CC(CN1CCC2(CC1)CN(c1cnc4c(n1)NC(=O)CO4)C(=O)O2)C3.O=C(O)C(F)(F)F` [Example 56, 6-[8-[[4,8-difluoro-2-[(1S)-2-hydroxy-1-(methylamino)ethyl]-3,5,6,7-tetrahydrocyclopenta[f]benzimidaozl-6-yl]methyl]-2-oxo-1-oxa-3,8-diazaspiro[4.5]decan-3-yl]-4H-pyrazino[2,3-b][1,4]oxazin-3-one; 2,2,2-trifluoroacetic acid], the MIC stood at 0.25 µg/mL. Next, `CN[C@H](CO)Cc1nc2c(F)c3c(c(F)c2[nH]1)CC(CN1CCC2(CC1)CN(c1cnc4c(n1)NC(=O)CO4)C(=O)O2)C3` [Example 57, 6-[8-[[4,8-difluoro-2-[(2S)-3-hydroxy-2-(methylamino)propyl]-3,5,6,7-tetrahydrocyclopenta[f]benzimidazol-6-yl]methyl]-2-oxo-1-oxa-3,8-diazaspiro[4.5]decan-3-yl]-4H-pyrazino[2,3-b][1,4]oxazin-3-one]: 0.5 µg/mL (≈ 0.835 µM); `CN1C[C@H](O)C[C@H]1c1nc2c(F)c3c(c(F)c2[nH]1)CC(CN1CCC2(CC1)CN(c1cnc4c(n1)NC(=O)CO4)C(=O)O2)C3` [Example 58, 6-[8-[[4,8-Difluoro-2-[(2S,4R)-4-hydroxy-1-methyl-pyrrolidin-2-yl]-3,5,6,7-tetrahydrocyclopenta[f]benzimidazol-6-yl]methyl]-2-oxo-1-oxa-3,8-diazaspiro[4.5]decan-3-yl]-4H-pyrazino[2,3-b][1,4]oxazin-3-one]: 1 µg/mL (≈ 1.64 µM). `CNCC(=O)NCCn1nnc2c(F)c3c(c(F)c21)CC(CN1CCC2(CC1)CN(c1cnc4c(n1)NC(=O)CO4)C(=O)O2)C3` (stereo not shown) [Example 61, N-[2-[4,8-Difluoro-6-[[2-oxo-3-(3-oxo-4H-pyrazino[2,3-b][1,4]oxazin-6-yl)-1-oxa-3,8-diazaspiro[4.5]decan-8-yl]methyl]-6,7-dihydro-5H-cyclopenta[f]benzotriazol-1-yl]ethyl]-2-(methylamino)acetamide]: the MIC was 0.5 µg/mL (≈ 0.798 µM). Regarding `CN(C)CCc1nc2cc3c(c(F)c2o1)CC(CN1CCC2(CC1)CN(c1cnc4c(n1)NC(=O)CO4)C(=O)O2)C3` (stereo not shown) [Example 62, 6-[8-[[2-[2-(Dimethylamino)ethyl]-8-fluoro-6,7-dihydro-5H-cyclopenta[f][1,3]benzoxazol-6-yl]methyl]-2-oxo-1-oxa-3,8-diazaspiro[4.5]decan-3-yl]-4H-pyrazino[2,3-b][1,4]oxazin-3-one], the MIC was 0.25 µg/mL (≈ 0.442 µM).

As to `CN(C)[C@H](CO)Cc1nc2c(F)c3c(c(F)c2[nH]1)CC(CN1CCC2(CC1)CN(c1cnc4c(n1)NC(=O)CO4)C(=O)O2)C3` [Example 63, 6-[8-[[2-[(2S)-2-(Dimethylamino)-3-hydroxy-propyl]-4,8-difluoro-3,5,6,7-tetrahydrocyclopenta[f]benzimidazol-6-yl]methyl]-2-oxo-1-oxa-3,8-diazaspiro[4.5]decan-3-yl]-4H-pyrazino[2,3-b][1,4]oxazin-3-one], the MIC was determined as 0.25 µg/mL (≈ 0.408 µM).
